Measured values taken from publication PMC6024615, “Effect of Biliary Drainage on the Toxicity and Toxicokinetics of Amanita exitialis in Beagles” (Toxins, 2018).
*1 amine or outer side, *2 acyl side, *3 side chain or, on linkers, in order; H or OH if unused. Where a SMILES comes first, the peptide text is derived from it. Bridges are numbered along the chain shown (N, C = ends). [ ]: non-standard residue; d: D form. Trp(2-yl) = O=C([C@H](Cc1c([*:3])[nH]c2ccccc12)N[*:1])[*:2]; Leu(4R-OH,5-OH) = C[C@](O)(CO)C[C@H](N)C(=O)O; dAsp(3S-OH) = N[C@@H](C(=O)O)[C@H](O)C(=O)O; cisHyp = O=C(O)[C@@H]1C[C@H](O)CN1

Experiment: Peptide toxins in the bile of beagles with biliary drainage
Type: in vivo, beagle dogs
Conditions: for Accumulated amounts excreted in bile / percentage of total bile excretion, Accumulated amounts: 0–4 days
Method: The study was approved by National Institute of Occupational Health and Poison Control review board for animal experiments. Twenty-four male beagles (age, 8–10 months; weight, 10 ± 1 kg) were obtained from Beijing Institute of Xieerxin Biology Resource (Beijing, China). They were randomly divided into four groups of six animals each: control, biliary drainage, and 20 and 60 mg/kg with biliary drainage groups. The biliary drainage operation was conducted in all groups barring the control group. The dogs were dressed in homemade underwear, coats, and Elizabeth circles for a week to ensure pre-experimental acclimatization (Figure S8a–c). After determining the baseline values for biochemical indicators, the dogs were fasted for 24 h but received water ad libitum. They were anesthetized by intravenous administration of pentobarbital sodium (3%, 1 mL/kg) during the surgery. A temperature of 38–39 °C was maintained with a warming mat. After skin preservation and sterilization, the abdominal cavity was opened through the central abdomen. The abdomen was explored and blunt dissection of the common bile duct was performed (Figure S8d). The common bile duct and its branches were ligated from the intestinal side. A 7.0-Fr drainage catheter (COOK, Bloomington, IN, USA) was percutaneously inserted into the gallbladder, and a medical drainage bag was connected to the drainage catheter coming out of the abdominal cavity. Each opened layer, including the peritoneum, abdominal wall muscle, and skin, was closed with suture. The operative incision was protected with sterile gauze and a bandage, and the dogs were dressed in homemade underwear, coats, and Elizabeth circles. The drainage bag was placed in the pocket of the coat (Figure S8e). After the anesthetic wore off, the dogs were placed in cages, and food and water were provided ad libitum. The operative incision was sterilized with iodophor twice a day until stitches were removed six days after surgery. The drainage bag was replaced every day. On the eighth day after surgery, the 20 and 60 mg/kg with biliary drainage groups were orally administered a lyophilized powder of Amanita exitialis in starch capsules. In control and bile drainage group, the beagle dogs were fed with empty capsules. Immediately after dosing, the animals were placed in their cages, and food and water were provided ad libitum. Dogs were sacrificed with an overdose of sodium pentobarbital at the end of the experiment. All procedures were performed according to the ethical standards of the National Institutes of Health Guide for Animal Welfare and approved by the Institutional Animal Care and Use Committee (EAWE-2017-005).
Peptide toxins in blood and urine samples were analyzed as described previously. Bile samples from Days 0–1, Days 1–2, Days 2–3, and Days 3–4 were collected and stored in medical drainage bags and the bile volume was recorded. Plasma and urine samples were stored at 2–8 °C until analysis for peptide toxins.
α-Amanitin, β-amanitin, γ-amanitin, and phallacidin were used as the standard reference materials. Aliquots (0.2 mL) of bile samples were transferred into 2-mL polypropylene centrifuge tubes in duplicates. Next, 1 mL of acetonitrile was added to each tube. After vortex-mixing for 1 min, each sample was sonicated for 30 min and centrifuged at 11,200× g for 10 min at 4 °C. The supernatants were loaded on solid-phase extraction columns (Oasis PRiME HLB, 60 mg, 3 cc). The columns were then washed with 3 mL of methanol/ultrapure water (v/v: 5/95). The eluent was evaporated in a stream of nitrogen at room temperature. The dry residue was dissolved in 0.2 mL of ultrapure water and analyzed by UPLC-ESI-MS/MS.
UPLC and MS/MS parameters were as described in our previous study. The limit of detection and limit of quantitation of each toxin in the bile were 0.03 mg/kg and 0.5 mg/kg, respectively.

[1] = 0-1 d, 20 mg/kg with biliary drainage group
[2] = 0-1 d, 60 mg/kg with biliary drainage group
[3] = 0–1 days, 20 mg/kg with biliary drainage group
[4] = 0–1 days, 60 mg/kg with biliary drainage group
[5] = 20 mg/kg with biliary drainage group
[6] = 60 mg/kg with biliary drainage group
[7] = 60 mg/kg with biliary drainage group, 60 mg/kg
[8] = 20 mg/kg with biliary drainage group, mean ± SD
[9] = 60 mg/kg with biliary drainage group, mean ± SD
[10] = 1-2 d, 20 mg/kg with biliary drainage group
[11] = 1-2 d, 60 mg/kg with biliary drainage group
[12] = 1–2 days, 20 mg/kg with biliary drainage group
[13] = 1–2 days, 60 mg/kg with biliary drainage group
[14] = 2-3 d, 20 mg/kg with biliary drainage group
[15] = 2-3 d, 60 mg/kg with biliary drainage group
[16] = 2–3 days, 20 mg/kg with biliary drainage group
[17] = 2–3 days, 60 mg/kg with biliary drainage group
[18] = 3-4d, 20 mg/kg with biliary drainage group
[19] = 3-4d, 60 mg/kg with biliary drainage group
[20] = 3–4 days, 20 mg/kg with biliary drainage group
[21] = 3–4 days, 60 mg/kg with biliary drainage group

SMILES	detection rate of peptide toxins in bile [2]	daily amount excreted in bile [3]	percentage of total bile excretion excreted daily [3]	daily amount excreted in bile [4]	percentage of total bile excretion excreted daily [4]	Accumulated amounts excreted in bile [5]	percentage of total bile excretion, Accumulated amounts [5]	percentage of total bile excretion, Accumulated amounts [6]	ratio of peptide toxins in bile to excretion in urine and bile [8]	ratio of peptide toxins in bile to excretion in urine and bile [9]	detection rate of peptide toxins in bile [10]	toxin concentration in bile [10]	detection rate of peptide toxins in bile [11]	daily amount excreted in bile [12]	percentage of total bile excretion excreted daily [12]	daily amount excreted in bile [13]	percentage of total bile excretion excreted daily [13]	detection rate of peptide toxins in bile [14]	toxin concentration in bile [14]	detection rate of peptide toxins in bile [15]	also measured
CC[C@H](C)[C@@H]1NC(=O)CNC(=O)[C@@H]2Cc3c([nH]c4cc(O)ccc34)[S@+]([O-])C[C@H](NC(=O)CNC1=O)C(=O)N[C@@H](CC(=O)O)C(=O)N1C[C@H](O)C[C@H]1C(=O)N[C@@H]([C@@H](C)[C@@H](O)CO)C(=O)N2 [β-amanitin]	83%	0.00014 mg	100%	0.00122 mg	100%	0.00014 mg	100%	100%	less than 10%	less than 20%	0%	0 µg/L	0%	0(0%) mg	0(0%)	0(0%) mg	0(0%)	0%	0 µg/L	0%	detection rate of peptide toxins in bile [1]: 50%; Accumulated amounts excreted in bile [7]: 0.0012 mg; Accumulated amounts excreted in bile (60 mg/kg with biliary drainage group, listed as β-Amanitin, 60 mg/kg): 0.00122 mg; ratio of peptide toxins in bile to excretion in urine and bile (20 mg/kg with biliary drainage group, mean ± SD, listed as β-Amanitin): 5.7 ± 8.5%; ratio of peptide toxins in bile to excretion in urine and bile (60 mg/kg with biliary drainage group, mean ± SD, listed as β-Amanitin): 15.4 ± 10.6%; toxin concentration in bile [11]: 0 µg/L; toxin concentration in bile [15]: 0 µg/L; daily amount excreted in bile [16]: 0(0%) mg; percentage of total bile excretion excreted daily [16]: 0(0%); daily amount excreted in bile [17]: 0(0%) mg; percentage of total bile excretion excreted daily [17]: 0(0%); detection rate of peptide toxins in bile [18]: 0%; toxin concentration in bile [18]: 0 µg/L; detection rate of peptide toxins in bile [19]: 0%; toxin concentration in bile [19]: 0 µg/L; daily amount excreted in bile [20]: 0(0%) mg; percentage of total bile excretion excreted daily [20]: 0(0%); daily amount excreted in bile [21]: 0(0%) mg; percentage of total bile excretion excreted daily [21]: 0(0%)
CC[C@H](C)[C@@H]1NC(=O)CNC(=O)[C@@H]2Cc3c([nH]c4cc(O)ccc34)[S@+]([O-])C[C@H](NC(=O)CNC1=O)C(=O)N[C@@H](CC(N)=O)C(=O)N1C[C@H](O)C[C@H]1C(=O)N[C@@H]([C@@H](C)[C@@H](O)CO)C(=O)N2 [α-amanitin]	83%	0.00007 mg	100%	0.00061 mg	100%	0.00007 mg	100%	100%	less than 10%	less than 20%	0%	0 µg/L	0%	0(0%) mg	0(0%)	0(0%) mg	0(0%)	0%	0 µg/L	0%	Accumulated amounts excreted in bile [6]: 0.00061 mg; ratio of peptide toxins in bile to excretion in urine and bile (20 mg/kg with biliary drainage group, mean ± SD, listed as α-Amanitin): 1.3 ± 2.4%; ratio of peptide toxins in bile to excretion in urine and bile (60 mg/kg with biliary drainage group, mean ± SD, listed as α-Amanitin): 3.1 ± 2.5%; toxin concentration in bile [11]: 0 µg/L; toxin concentration in bile [15]: 0 µg/L; daily amount excreted in bile [16]: 0(0%) mg; percentage of total bile excretion excreted daily [16]: 0(0%); daily amount excreted in bile [17]: 0(0%) mg; percentage of total bile excretion excreted daily [17]: 0(0%); detection rate of peptide toxins in bile [18]: 0%; toxin concentration in bile [18]: 0 µg/L; detection rate of peptide toxins in bile [19]: 0%; toxin concentration in bile [19]: 0 µg/L; daily amount excreted in bile [20]: 0(0%) mg; percentage of total bile excretion excreted daily [20]: 0(0%); daily amount excreted in bile [21]: 0(0%) mg; percentage of total bile excretion excreted daily [21]: 0(0%)
CC(C)[C@@H]1NC(=O)[C@H](C[C@@](C)(O)CO)NC(=O)[C@@H]2Cc3c([nH]c4ccccc34)SC[C@H](NC(=O)[C@@H]([C@H](O)C(=O)O)NC1=O)C(=O)N1C[C@@H](O)C[C@H]1C(=O)N[C@@H](C)C(=O)N2 [phallacidin] (cyclo(A[Trp(2-yl)][Leu(4R-OH,5-OH)]V[dAsp(3S-OH)]C[cisHyp]); thioether 2-6)	83%	0.00005 mg	100%	0.0002 mg	81.7%	0.00005 mg	100%	100%	less than 10%	less than 20%	0%	0 µg/L	75%	0(0%) mg	0(0%)	0.00004 mg	18.3%	0%	0 µg/L	0%	detection rate of peptide toxins in bile [1]: 83%; toxin concentration in bile (0-1d, 20 mg/kg with biliary drainage group, mean ± SD): 0 µg/L; Accumulated amounts excreted in bile [7]: 0.00024 mg; ratio of peptide toxins in bile to excretion in urine and bile (20 mg/kg with biliary drainage group, mean ± SD, listed as Phallacidin): 4.8 ± 5.7%; ratio of peptide toxins in bile to excretion in urine and bile (60 mg/kg with biliary drainage group, mean ± SD, listed as Phallacidin): 9.4 ± 6.4%; toxin concentration in bile [15]: 0 µg/L; daily amount excreted in bile [16]: 0(0%) mg; percentage of total bile excretion excreted daily [16]: 0(0%); daily amount excreted in bile [17]: 0(0%) mg; percentage of total bile excretion excreted daily [17]: 0(0%); detection rate of peptide toxins in bile [18]: 0%; toxin concentration in bile [18]: 0 µg/L; detection rate of peptide toxins in bile [19]: 0%; toxin concentration in bile [19]: 0 µg/L; daily amount excreted in bile [20]: 0(0%) mg; percentage of total bile excretion excreted daily [20]: 0(0%); daily amount excreted in bile [21]: 0(0%) mg; percentage of total bile excretion excreted daily [21]: 0(0%)
